In test [1] the target is T1, ligand binding domain of human FXR (Homo sapiens, UniProt Q96RI1).
T1 construct: purchased Thermofisher (LanthaScreen) PV4833
T1 sequence (Q96RI1 262-486 limits assumed): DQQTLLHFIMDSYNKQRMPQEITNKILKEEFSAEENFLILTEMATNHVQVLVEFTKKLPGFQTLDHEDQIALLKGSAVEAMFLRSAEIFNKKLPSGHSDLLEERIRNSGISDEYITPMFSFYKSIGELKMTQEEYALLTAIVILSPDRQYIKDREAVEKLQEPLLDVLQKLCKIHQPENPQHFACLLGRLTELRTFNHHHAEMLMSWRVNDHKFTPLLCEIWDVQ
As to the kind of experiment: biochemical. To be noted: for Emax: extent of activation relative to GW4064, read-out: Ligand Binding % Efficacy; for EC50: −log EC50, concentration required to produce 50% activation, FRET 520 nm/495 nm, 1 hour at room temperature, read-out: Ligand Binding pEC50 (converted). The protocol: The affinity of FXR ligands for the ligand binding domain of FXR was determined using a commercially available human FXR ligand binding assay (LanthaScreen, Thermofisher Cat #PV4833). […] Binding of FXR ligands to the FXR ligand binding domain promotes binding of the fluorescein-labelled SRC2-2 peptide. This causes a FRET signal between the terbium-labelled anti-GST antibody and the fluorescein-labelled SRC peptide which are both bound to the FXR ligand binding domain.
Test compounds are dissolved in DMSO and a 3-fold serial dilution series is generated, then further diluted into assay buffer. The compounds are mixed with 5 nM GST-tagged FXR ligand binding domain, 5 nM Tb-labelled anti-GST antibody and 500 nM fluorescein-labelled SRC2-2 peptide in a pH7.4 buffer. The reaction is incubated at room temperature for 1 hour, then the FRET signal is measured as the ratio of the 520 nm/495 nm emission following excitation at 340 nm. The change in FRET signal is plotted against the test article concentration and fit to a 3-parameter logistical equation.

Test [2] deals with T2, human Farnesoid X receptor ligand-binding domain/Gal4 DNA binding domain chimera (Homo sapiens, UniProt Q96RI1).
T2 construct: host or cells: FXR-UAS-bla HEK 293T (CellSensor UAS-bla HEK 293T)
T2 sequence (Q96RI1 262-486 limits assumed): T1 sequence (Q96RI1 262-486 limits assumed)
As to the kind of experiment: Cell-based assay of FXR activation (FXR-UAS-bla HEK 293T beta-lactamase reporter). Particulars: for Emax: HEK-293T, read-out: Cellular % Efficacy. The protocol:
FXR activation was measured using a cell line and procedure obtained from Life Technologies (Cat #K1691). […] Activation of FXR by bound ligands results in transcriptional activation of the beta-lactamase reporter gene, which is detected via assay of beta-lactamase activity.
Cells are harvested and diluted into assay medium containing phenol red-free DMEM supplemented with 2% Charcoal-stripped FBS, pyruvate, non-essential amino acids. Cells are then transferred to a 384 well assay plate. Test compounds are dissolved in DMSO and a 3-fold serial dilution series is generated, then further diluted into assay medium. Compounds in assay medium are added to cells in the 384 well plate and allowed to incubate 16 h at 37 C in the presence of 5% CO2.
A FRET-based […] (CCF4) is loaded into cells as its acetomethoxy ester. Intracellular esterases liberate free CCF4, a cephalosporin core linking 7-hydroxycoumarin to fluorescein. In the presence of beta-lactamase activity produced in the presence of FXR agonists, cleavage of CCF4 spatially separates the two dyes and disrupts FRET, so that exciting the coumarin at 409 nm now produces a blue fluorescence signal at 447 nm. The change in FRET signal is plotted against the test compound concentration and fit to a 3-parameter logistical equation.

For `O=C(NS(=O)(=O)C1CCOCC1)c1ccc(N2C[C@@H]3C[C@H]2C[C@H]3OCc2c(C3CC3)cnn2-c2c(Cl)cccc2Cl)cc1` [Compound I-20, 4-[(1S,4S,5R)-5-{[4-cyclopropyl-1-(2,6-dichlorophenyl)-1H-pyrazol-5-yl]methoxy}-2-azabicyclo[2.2.1]heptan-2-yl]-N-(oxane-4-sulfonyl)benzamide], in test [1], the Emax is 147% and the EC50 is 0.00316 µM. For the same molecule, in test [2], the EC50 was 0.000794 µM and the Emax stood at 102%.
For `O=C(NS(=O)(=O)C1CCOC1)c1ccc(N2C[C@@H]3C[C@H]2C[C@H]3OCc2c(C3CC3)cnn2-c2c(Cl)cccc2Cl)cc1` (stereo partly drawn) [Compound I-23, 4-((1S,4S,5R)-5-((4-cyclopropyl-1-(2,6-dichlorophenyl)-1H-pyrazol-5-yl)methoxy)-2-azabicyclo[2.2.1]heptan-2-yl)-N-((tetrahydrofuran-3-yl)sulfonyl)benzamide], in that order: 164%, 0.00398 µM, 0.00251 µM and 111%.
For `O=C(NS(=O)(=O)CC1CCOC1)c1ccc(N2C[C@@H]3C[C@H]2C[C@H]3OCc2c(C3CC3)cnn2-c2c(Cl)cccc2Cl)cc1` (stereo partly drawn) [Compound I-24, 4-((1S,4S,5R)-5-((4-cyclopropyl-1-(2,6-dichlorophenyl)-1H-pyrazol-5-yl)methoxy)-2-azabicyclo[2.2.1]heptan-2-yl)-N-(((tetrahydrofuran-3-yl)methyl)sulfonyl)benzamide] the same measures were 164%, 0.00316 µM, 0.00251 µM and 107%.
For `O=C(O)c1cc(F)c2nc(N3C[C@@H]4C[C@H]3C[C@H]4OCc3c(C4CC4)cnn3-c3c(Cl)cccc3Cl)sc2c1` [Compound I-30, 2-[(1S,4S,5R)-5-{[4-cyclopropyl-1-(2,6-dichlorophenyl)-1H-pyrazol-5-yl]methoxy}-2-azabicyclo[2.2.1]heptan-2-yl]-4-fluoro-1,3-benzothiazole-6-carboxylic acid], in that order: 151%, 0.0158 µM, 0.00158 µM and 106%.
With `O=C(O)c1cc(OC2CC2)c2nc(N3C[C@@H]4C[C@H]3C[C@H]4OCc3c(C4CC4)cnn3-c3c(Cl)cccc3Cl)sc2c1` [Compound I-31, 4-cyclopropoxy-2-[(1S,4S,5R)-5-{[4-cyclopropyl-1-(2,6-dichlorophenyl)-1H-pyrazol-5-yl]methoxy}-2-azabicyclo[2.2.1]heptan-2-yl]-1,3-benzothiazole-6-carboxylic acid], in test [1], the Emax came to 116% and the EC50 is 0.00158 µM. Moreover, in test [2], the EC50 was 0.0002 µM and the Emax came out at 110%.
For `O=C(O)c1cc(C2CCOCC2)c2nc(N3C[C@@H]4C[C@H]3C[C@H]4OCc3c(C4CC4)cnn3-c3c(Cl)cccc3Cl)sc2c1` [Compound I-32, 2-[(1S,4S,5R)-5-{[4-cyclopropyl-1-(2,6-dichlorophenyl)-1H-pyrazol-5-yl]methoxy}-2-azabicyclo[2.2.1]heptan-2-yl]-4-(oxan-4-yl)-1,3-benzothiazole-6-carboxylic acid], in that order: 128%, 0.00251 µM, 0.001 µM and 101%.
Turning to `O=C(O)CCc1ccc(N2C[C@@H]3C[C@H]2C[C@H]3OCc2c(C3CC3)cnn2-c2c(Cl)cccc2Cl)c(F)c1` [Compound I-33, 3-{4-[(1S,4S,5R)-5-{[4-cyclopropyl-1-(2,6-dichlorophenyl)-1H-pyrazol-5-yl]methoxy}-2-azabicyclo[2.2.1]heptan-2-yl]-3-fluorophenyl}propanoic acid], in test [1], the Emax was 132% and the EC50 was 0.0398 µM. In addition, in test [2], the EC50 was 0.00398 µM and the Emax was determined as 99%.
For `O=C(O)CCc1ccc(N2C[C@@H]3C[C@H]2C[C@H]3OCc2c(C3CC3)cnn2-c2c(Cl)cccc2Cl)cc1F` [Compound I-34, 3-{4-[(1S,4S,5R)-5-{[4-cyclopropyl-1-(2,6-dichlorophenyl)-1H-pyrazol-5-yl]methoxy}-2-azabicyclo[2.2.1]heptan-2-yl]-2-fluorophenyl}propanoic acid], in that order: 144%, 0.1 µM, 0.01 µM and 98%.
On to `O=C(O)c1ccc(N2C[C@@H]3C[C@H]2C[C@H]3OCc2c(-c3c(Cl)cccc3Cl)cnn2C2CC2)cc1` [Compound I-41, 4-[(1S,4S,5R)-5-{[1-cyclopropyl-4-(2,6-dichlorophenyl)-1H-pyrazol-5-yl]methoxy}-2-azabicyclo[2.2.1]heptan-2-yl]benzoic acid], for which the Emax in test [1] is 96%; in test [2], 117%. Also, the results for the EC50 in test [1] and in test [2] were 0.316 µM and 0.794 µM, respectively.
For `O=C(O)c1ccc(N2C[C@@H]3C[C@H]2C[C@H]3OCc2c(-c3c(Cl)cccc3Cl)cnn2C2CC2)cc1F` [Compound I-42, 4-[(1S,4S,5R)-5-{[1-cyclopropyl-4-(2,6-dichlorophenyl)-1H-pyrazol-5-yl]methoxy}-2-azabicyclo[2.2.1]heptan-2-yl]-2-fluorobenzoic acid], in that order: 102%, 110%, 0.251 µM and 0.398 µM.
Consider `O=C(O)CCc1ccc(N2C[C@@H]3C[C@H]2C[C@H]3OCc2c(-c3c(Cl)cccc3Cl)cnn2C2CC2)cc1` [Compound I-43, 3-{4-[(1S,4S,5R)-5-{[1-cyclopropyl-4-(2,6-dichlorophenyl)-1H-pyrazol-5-yl]methoxy}-2-azabicyclo[2.2.1]heptan-2-yl]phenyl}propanoic acid], for which the figures for the EC50 in test [1] and in test [2] were below 0.316 µM and below 0.0316 µM, respectively.
For `O=C(O)CCc1ccc(N2C[C@@H]3C[C@H]2C[C@H]3OCc2c(-c3c(Cl)cccc3Cl)cnn2C2CC2)c(F)c1` [Compound I-44, 3-{4-[(1S,4S,5R)-5-{[1-cyclopropyl-4-(2,6-dichlorophenyl)-1H-pyrazol-5-yl]methoxy}-2-azabicyclo[2.2.1]heptan-2-yl]-3-fluorophenyl}propanoic acid], in test [1], the Emax stood at 96% and the EC50 was below 0.631 µM. Further, the EC50 in test [2] is below 0.0316 µM.
In the case of `CS(=O)(=O)CCNC(=O)c1ccc(N2C[C@@H]3C[C@H]2C[C@H]3OCc2c(-c3c(Cl)cccc3Cl)cnn2C2CC2)cc1F` [Compound I-45, 4-[(1S,4S,5R)-5-{[1-cyclopropyl-4-(2,6-dichlorophenyl)-1H-pyrazol-5-yl]methoxy}-2-azabicyclo[2.2.1]heptan-2-yl]-2-fluoro-N-(2-methanesulfonylethyl)benzamide], in test [1], the Emax is 57% and the EC50 is 0.398 µM. In test [2], the EC50 is 1 µM and the Emax was 92%.
On to `O=C(NS(=O)(=O)C1CCOCC1)c1ccc(N2C[C@@H]3C[C@H]2C[C@H]3OCc2c(-c3c(Cl)cccc3Cl)cnn2C2CC2)cc1` [Compound I-46, 4-[(1S,4S,5R)-5-{[1-cyclopropyl-4-(2,6-dichlorophenyl)-1H-pyrazol-5-yl]methoxy}-2-azabicyclo[2.2.1]heptan-2-yl]-N-(oxane-4-sulfonyl)benzamide], for which, in test [1], the Emax was determined as 170% and the EC50 is 0.1 µM. For the same molecule, in test [2], the EC50 was below 0.0316 µM.
Turning to `O=C(O)c1cc(F)c2nc(N3C[C@@H]4C[C@H]3C[C@H]4OCc3c(-c4c(Cl)cccc4Cl)cnn3C3CC3)sc2c1` [Compound I-47, 2-[(1S,4S,5R)-5-{[1-cyclopropyl-4-(2,6-dichlorophenyl)-1H-pyrazol-5-yl]methoxy}-2-azabicyclo[2.2.1]heptan-2-yl]-4-fluoro-1,3-benzothiazole-6-carboxylic acid], in test [1], the Emax is 62% and the EC50 is 0.251 µM. In test [2], the EC50 is 0.398 µM and the Emax is 94%.

The values are drawn from US11753410B2, “Hormone receptor modulators for treating metabolic mutagenic and fibrotic conditions and disorders” (priority 2017, dated 2023).
